Laboratory results from patent publication US20260048051A1, “TREATMENT OF INFLAMMATORY BOWEL DISEASE” (Atomwise Inc., priority 2024, published 2026).
Read-outs that look alike come from different tables or passages of the source.

Test: Plasma and tissue distribution in SD rats
Type: in vivo
Details: for Tissue/Plasma Ratio (AUCinf) / Kp: SD rat; for Kp: rat, oral, read-out: Tissue/Plasma Ratio (AUCinf); for Cmax / Tmax / half-life / AUC0-inf / AUC0-24 / AUC0-last: PO 10 mg/kg
Excerpt: The following Example describes the methods and data used to evaluate the tissue distribution of TYK2 inhibitors following the administration of either compound 1 or compound 2.
Thirty (30, 15/sex) SD rats supplied by Beijing Vital River Laboratory Animal Technology Co., Ltd. were used in this study. The animals were confirmed to be healthy before being assigned to the study. The room (s) was controlled and monitored for relative humidity (targeted mean range 40% to 70%) and temperature (targeted mean range 20° C. to 26° C.) with 15 or above air changes/hour. The room was on a 12-hour light/dark cycle except when interruptions were necessitated by study activities. Fresh drinking water (reverses osmosis) was available to all animals, ad libitum. Certified animal diet from certified vendor was available to all animals, ad libitum.
Animals were weighed prior to dose administration to calculate the actual dose volume. The body weights were in the range from 245.39 to 276.33 g for males and 182.29 to 215.69 g for females on the first dosing day. The animals in Groups 1 and 2 received a single oral gavage administration of test compound 1. Cage-side observations for the general health condition and appearance of the animal were performed before and after dosing and at each time point of sample collection. Unusual observations were recorded throughout the duration of the study.
The vehicle was 0.5% methyl cellulose (4000 cps) in water. The formulation was prepared according to the following steps. Group 1: 25.95 mg of compound 1 was weighed into a glass vial. 5000 μL of vehicle was added into the vial and stirred for 30 min at 1700 rpm to get a homogenous opaque suspension. 5000 μL of vehicle was added into the vial and stirred for 10 min at 1700 rpm to get a homogenous opaque suspension. 5000 μL+5000 μL+5000 μL+924 μL of vehicle was added into the vial and stirred for 10 min at 1700 rpm to get a homogenous opaque suspension. Group 2: 81.66 mg of compound 1 was weighed into a glass vial. 5000 μL of vehicle was added into the vial and stirred for 30 min at 1700 rpm to get a homogenous opaque suspension. 5000 μL of vehicle was added into the vial and stirred for 10 min at 1700 rpm to get a homogenous opaque suspension. 10 mL+10 mL+10 mL+20 mL+10 mL+10 mL+1580 μL of vehicle was added into the vial and stirred for 10 min at 1700 rpm to get a homogenous opaque suspension.
Blood (about 0.2 mL) was collected at each time point via jugular vein puncture from each study animal. The actual time for each sample collection was recorded. The acceptable deviations on sampling time were ±1 min for the time points pre-dose through 1 hour post-dose, and +5% of the nominal time for time points after 1 hour post-dose.
All blood samples were transferred into commercial tubes containing K2-EDTA. After blood was collected, the samples were placed on wet ice and processed for plasma within 60 minutes of collection by centrifugation at approximately 4° C., 3200×g for 10 minutes, and then quickly frozen over dry ice and kept at −60° C. or lower until LC-MS/MS analysis.
Following terminal blood sample collection, animals were conducted CO2 euthanasia, the chest and abdominal cavities were opened carefully lengthwise using scissors to expose the internal organs in preparation of tissue perfusion. A needle was used to puncture a small hole into the left ventricle of the heart, and then clamped with a hemostat. […] Fluid (cold 1×PBS) was infused until the liver pales (typically 2-3 minutes). Following perfusion, 14 kinds of tissues (spleen, bone marrow, adipose, brain, heart, kidney, liver, lung, skin, small intestine, large intestine, eye, gonads, and bladder) were collected from each animal, respectively.
Each tissue was weighed and homogenized on wet ice using homogenizing buffer (MeOH/15 mM PBS 1:2) at the ratio of 1:9 (1 g tissue with 9 mL buffer). The tissue homogenate was kept at −60° C. or lower until LC-MS/MS analysis. […]

[1] = Sprague-Dawley, epididymis and testis, male SD rat, Epididymis & Testis
[2] = Sprague-Dawley, male SD rat, Eyeball (left and right)
[3] = Sprague-Dawley, male SD rat, Fat
[4] = Sprague-Dawley, male SD rat, Heart
[5] = Sprague-Dawley, male SD rat, Kidney (left and right)
[6] = Sprague-Dawley, male SD rat, Large intestine
[7] = Sprague-Dawley, plasma, female SD rat
[8] = Sprague-Dawley, plasma, male SD rat
[9] = female SD rat, Eyeball (left and right)
[10] = female SD rat, Kidney (left and right)

C[C@@H](c1ccc(Nc2cc(Nc3ncccc3S(C)(=O)=O)ncn2)nc1)N1CC2(COC2)C1 [Compound 1, (S)—N^4-(5-(1-(2-oxa-6-azaspiro[3.3]heptan-6-yl)ethyl)pyridin-2-yl)-N^6-(3-(methylsulfonyl)pyridin-2-yl)pyrimidine-4,6-diamine]
Tissue/Plasma Ratio (AUCinf) (Kidney): 9.1
Tissue/Plasma Ratio (AUCinf) (Large Intestine): 13
Kp (Sprague-Dawley (SD), bone marrow / plasma, Bone Marrow): 4.3
Cmax [1]: 350 ng/g
Tmax [1]: 8 h
Kp (Sprague-Dawley, adipose, Adipose): 0.59
Kp (Sprague-Dawley, bladder, Bladder): 5
Kp (Sprague-Dawley, eye, Eye): 0.8
Kp (Sprague-Dawley, kidney, Kidney): ~9
Kp (Sprague-Dawley, large intestine, Large Intestine): ~13
Kp (Sprague-Dawley, liver, Liver): 7.6
Kp (Sprague-Dawley, lung, Lung): 2
Kp (Sprague-Dawley, skin, Skin): 3.2
Kp (Sprague-Dawley, small intestine, Small Intestine): 21
Kp (Sprague-Dawley, spleen, Spleen): 5.4
Cmax [2]: 327 ng/g
Tmax [2]: 0.5 h
half-life [2]: 4.03 h
Cmax [3]: 464 ng/g
Tmax [3]: 0.5 h
half-life [3]: 3.08 h
Cmax [4]: 1260 ng/g
Tmax [4]: 0.5 h
half-life [4]: 2.31 h
Cmax [5]: 6140 ng/g
Tmax [5]: 0.5 h
half-life [5]: 3.79 h
Cmax [6]: 5180 ng/g
Tmax [6]: 8 h
Cmax [7]: 1180 ng/mL
Tmax [7]: 0.5 h
half-life [7]: 2.39 h
AUC0-inf (Sprague-Dawley, plasma, female SD rat, read-out: AUC0-inf): 3610 ng·h/mL
Cmax [8]: 1370 ng/mL
Tmax [8]: 0.667 h
half-life [8]: 2.75 h
AUC0-inf (Sprague-Dawley, plasma, male SD rat, read-out: AUC0-inf): 2920 ng·h/mL
AUC0-24 (female SD rat, Bladder): 17454 ng·h/g
AUC0-inf (female SD rat, Bladder): 17693 ng·h/g
AUC0-last (female SD rat, Bladder): 17454 ng·h/g
Cmax (female SD rat, Bladder): 4150 ng/g
Tmax (female SD rat, Bladder): 2 h
half-life (female SD rat, Bladder): 3.61 h
AUC0-24 (female SD rat, Bone Marrow): 17781 ng·h/g
AUC0-inf (female SD rat, Bone Marrow): 17791 ng·h/g
AUC0-last (female SD rat, Bone Marrow): 15823 ng·h/g
Cmax (female SD rat, Bone Marrow): 3840 ng/g
Tmax (female SD rat, Bone Marrow): 0.5 h
half-life (female SD rat, Bone Marrow): 2.52 h
AUC0-24 [9]: 3253 ng·h/g
AUC0-inf [9]: 3348 ng·h/g
AUC0-last [9]: 3253 ng·h/g
Cmax [9]: 449 ng/g
Tmax [9]: 2 h
half-life [9]: 4.51 h
AUC0-24 (female SD rat, Fat): 1725 ng·h/g
AUC0-last (female SD rat, Fat): 1725 ng·h/g
Cmax (female SD rat, Fat): 417 ng/g
Tmax (female SD rat, Fat): 2 h
AUC0-24 (female SD rat, Heart): 5608 ng·h/g
AUC0-inf (female SD rat, Heart): 5627 ng·h/g
AUC0-last (female SD rat, Heart): 4754 ng·h/g
Cmax (female SD rat, Heart): 1280 ng/g
Tmax (female SD rat, Heart): 0.5 h
half-life (female SD rat, Heart): 2.88 h
AUC0-24 [10]: 36323 ng·h/g
AUC0-inf [10]: 36373 ng·h/g
AUC0-last [10]: 36323 ng·h/g
Cmax [10]: 7800 ng/g
Tmax [10]: 0.5 h
half-life [10]: 2.46 h
AUC0-24 (female SD rat, Large intestine): 39634 ng·h/g
AUC0-last (female SD rat, Large intestine): 39634 ng·h/g
Cmax (female SD rat, Large intestine): 4670 ng/g
Tmax (female SD rat, Large intestine): 8 h
AUC0-24 (female SD rat, Liver): 29588 ng·h/g
AUC0-inf (female SD rat, Liver): 29655 ng·h/g
AUC0-last (female SD rat, Liver): 29588 ng·h/g
Cmax (female SD rat, Liver): 6310 ng/g
Tmax (female SD rat, Liver): 0.5 h
half-life (female SD rat, Liver): 2.67 h
AUC0-24 (female SD rat, Lung): 8773 ng·h/g
AUC0-last (female SD rat, Lung): 8773 ng·h/g
Cmax (female SD rat, Lung): 2180 ng/g
Tmax (female SD rat, Lung): 2 h
AUC0-24 (female SD rat, Ovary & Uterus): 5024 ng·h/g
AUC0-inf (female SD rat, Ovary & Uterus): 5028 ng·h/g
AUC0-last (female SD rat, Ovary & Uterus): 4408 ng·h/g
AUC0-24 (female SD rat, Skin): 3803 ng·h/g
AUC0-last (female SD rat, Skin): 3803 ng·h/g
Cmax (female SD rat, Skin): 893 ng/g
Tmax (female SD rat, Skin): 2 h
AUC0-24 (female SD rat, Small intestine): 59880 ng·h/g
AUC0-inf (female SD rat, Small intestine): 59932 ng·h/g
AUC0-last (female SD rat, Small intestine): 59880 ng·h/g
Cmax (female SD rat, Small intestine): 12300 ng/g
Tmax (female SD rat, Small intestine): 0.5 h
half-life (female SD rat, Small intestine): 2.3 h
